Experimental findings from US7989462B2, “4-arylamin-or-4-heteroarylamino-quinazolines and analogs as activators of caspases and inducers of apoptosis and the use thereof” (Myrexis, Inc., priority 2003, dated 2011) are described below.

The subject of the experiment is T-47D. The experiment in a line: Caspase cascade activation in T-47D solid tumor cells (fluorogenic N-(Ac-DEVD)-N'-ethoxycarbonyl-R110 substrate). The format is cell-based, Human. The conditions noted are these: T-47D (24 hr); for EC50: Homo sapiens, T47D, read-out: Caspase Potency EC50; for Caspase Activity Ratio: ratio of net RFU of test compound to that of control samples. The method, then: Human breast cancer cell lines T-47D and DLD-1 were grown according to media component mixtures designated by American Type Culture Collection+10% FCS (Invitrogen Corporation), in a 5% CO2-95% humidity incubator at 37° C. T-47D and DLD-1 cells were maintained at a cell density between 50 and 80% confluency at a cell density of 0.1 to 0.6×10^6 cells/mL. Cells were harvested at 600×g and resuspended at 0.65×10^6 cells/mL into appropriate media+10% FCS. An aliquot of 22.5 μL of cells was added to a well of a 384-well microtiter plate containing 2.5 μL of a 10% DMSO in RPMI-1640 media solution containing 0.16 to 100 μM of (2-chloro-quinazolin-4-yl)-(4-dimethylaminophenyl)-methylamine or other test compound (0.016 to 10 μM final). An aliquot of 22.5 μL of cells was added to a well of a 384-well microtiter plate containing 2.5 μL of a 10% DMSO in RPMI-1640 media solution without test compound as the control sample. […] After incubation, the samples were removed from the incubator and 25 μL of a solution containing 14 μM of N-(Ac-DEVD)-N′-ethoxycarbonyl-R110 fluorogenic substrate (Cytovia, Inc.; WO99/18856), 20% sucrose (Sigma), 20 mM DTT (Sigma), 200 mM NaCl (Sigma), 40 mM Na PIPES buffer pH 7.2 (Sigma), and 500 μg/mL lysolecithin (Calbiochem) was added. The samples were mixed by agitation and incubated at room temperature. Using a fluorescent plate reader (Model SPECTRAfluor Plus, Tecan), an initial reading (T=0) was made approximately 1-2 min after addition of the substrate solution, employing excitation at 485 nm and emission at 530 nm, to determine the background fluorescence of the control sample. After the 3 h incubation, the samples were read for fluorescence as above (T=3 h).
The Relative Fluorescence Unit values (RFU) were used to calculate the sample readings as follows: RFU(T=3h)−Control RFU(T=0)=Net RFU(T=3h)
The activity of caspase cascade activation was determined by the ratio of the net RFU value for (2-chloro-quinazolin-4-yl)-(4-dimethylaminophenyl)-methylamine or other test compounds to that of control samples. The EC50 (nM) was determined by a sigmoidal dose-response calculation (Prism 3.0, GraphPad Software Inc.).

Each structure is given as a SMILES string.

On to `Cc1nc(N(C)c2ccc(N(C)C)cc2)c2cc([N+](=O)[O-])ccc2n1` [Example 10, (2-Methyl-6-nitroquinazolin-4-yl)-(4-dimethylaminophenyl)-methylamine], for which the EC50 was 979 nM and the “Caspase Activity Ratio” value is reported as 2.6.

On to `COc1ccc(N(C)c2nc(N(C)C(C)=O)nc3ccccc23)cc1` [Example 28, (4-Methoxy-phenyl)-(2-N-methylacetamido-quinazolin-4-yl)-methylamine], for which the EC50 is 7 nM and the “Caspase Activity Ratio” value amounted to 4.0.

Consider `CN(C)c1ccc(N(C)c2nc(Cl)nc3ccccc23)cc1` [Example 13, (2-Chloro-quinazolin-4-yl)-(4-dimethylaminophenyl)-methylamine], for which the EC50 turned out to be 4 nM and the “Caspase Activity Ratio” value amounted to 4.2.

Take `Cc1nc(Nc2ccc(N(C)C)nc2)c2ccccc2n1` [Example 26, (2-Dimethylamino-pyridine-5-yl)-(2-methyl-quinazolin-4-yl)-amine]: the EC50 is more than 10000 nM and the “Caspase Activity Ratio” value is listed as 1.3.

On to `COc1ccc(N(C)c2nc(Cl)nc3ccc([N+](=O)[O-])cc23)cc1` [Example 11, (2-Chloro-6-nitroquinazolin-4-yl)-(4-methoxyphenyl)-methylamine], for which the EC50 turned out to be 5080 nM and the “Caspase Activity Ratio” value turned out to be 4.0.

With `Cc1nc(Nc2ccc(N(C)C)cc2)c2ccccc2n1` [Example 22, (4-Dimethylamino-phenyl)-(2-methyl-quinazolin-4-yl)-amine], the EC50 amounted to 2860 nM and the “Caspase Activity Ratio” value was 8.7.

Regarding `Cc1nc(N(C)c2ccc(N(C)C)nc2)c2ccccc2n1` [Example 27, (2-Dimethylamino-pyridine-5-yl)-(2-methyl-quinazolin-4-yl)-methylamine], the EC50 was found to be 14 nM and the “Caspase Activity Ratio” value was 9.0.

Consider `COc1ccc(Nc2nc(C)nc3ccccc23)cc1OC` [Example 24, (3,4-Dimethoxy-phenyl)-(2-methyl-quinazolin-4-yl)-amine], for which the EC50 was more than 10000 nM and the “Caspase Activity Ratio” value worked out at 1.3.

Take `COC(=O)N(C)c1nc(N(C)c2ccc(OC)cc2)c2ccccc2n1` [Example 29, (4-Methoxy-phenyl)-(2-N-methyl-methoxycarbonylamino-quinazolin-4-yl)-methylamine]: the concentration giving a half-maximal response (EC50) came out at 34 nM and the “Caspase Activity Ratio” value was found to be 9.6.

As for `COc1ccc(N(C)c2nc(NCc3ccccc3)nc3ccccc23)cc1` [Example 3, (2-Benzylamino-quinazolin-4-yl)-(4-methoxyphenyl)-methylamine], the EC50 was determined as 75 nM and the “Caspase Activity Ratio” value was 8.2.

Turning to `COc1ccc(N(C)c2nc(NN)nc3ccccc23)cc1` [Example 32, (2-Hydrazinyl-quinazolin-4-yl)-(4-methoxy-phenyl)-methylamine], the EC50 was 68 nM and the “Caspase Activity Ratio” value is reported as 7.4.

As a reminder, the EC50 is the midpoint of the concentration-response curve.
